Results as given in patent publication US5416191A, “Bradykinin antagonists” (Cortech, Inc., priority 1993, dated 1995).
Peptide text beside a SMILES is read from it.

Key:
[1] = target: T1, bradykinin receptor of the B2 class (guinea-pig ileum) (Cavia porcellus, UniProt O70526); details: Table B; Cys position scan, monomers and BMH dimers
T1 sequence (O70526 1-372): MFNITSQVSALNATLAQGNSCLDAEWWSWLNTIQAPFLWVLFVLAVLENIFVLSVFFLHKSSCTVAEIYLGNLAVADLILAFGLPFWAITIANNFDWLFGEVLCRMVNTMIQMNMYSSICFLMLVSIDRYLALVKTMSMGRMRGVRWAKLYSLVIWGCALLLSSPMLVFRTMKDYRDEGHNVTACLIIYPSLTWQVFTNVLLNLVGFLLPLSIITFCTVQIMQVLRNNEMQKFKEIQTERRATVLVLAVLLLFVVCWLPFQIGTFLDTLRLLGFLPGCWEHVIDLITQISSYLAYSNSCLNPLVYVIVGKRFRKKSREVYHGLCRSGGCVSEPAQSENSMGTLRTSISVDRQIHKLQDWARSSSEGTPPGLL

[2] = target: T2, bradykinin receptor of the B2 class (rat uterus) (Rattus norvegicus, UniProt P25023); test: Rat uterus (RU) in vitro, antagonism of bradykinin; details: Table C, rat uterus
T2 construct: concentration effect curves to bradykinin (BK) on rat uterus in vitro; from tissue; host or cells: rat uterus
T2 sequence (P25023 1-396): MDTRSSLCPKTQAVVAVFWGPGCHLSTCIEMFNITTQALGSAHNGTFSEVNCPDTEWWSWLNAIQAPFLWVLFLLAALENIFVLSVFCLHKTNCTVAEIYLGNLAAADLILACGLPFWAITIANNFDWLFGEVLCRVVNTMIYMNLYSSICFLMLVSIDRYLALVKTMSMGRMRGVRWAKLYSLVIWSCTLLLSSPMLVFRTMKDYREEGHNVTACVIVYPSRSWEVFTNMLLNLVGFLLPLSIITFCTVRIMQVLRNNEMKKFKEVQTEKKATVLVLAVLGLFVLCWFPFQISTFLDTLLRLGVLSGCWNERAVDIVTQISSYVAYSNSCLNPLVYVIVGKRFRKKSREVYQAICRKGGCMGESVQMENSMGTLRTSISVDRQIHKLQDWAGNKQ
How it was run: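 Isolated rat uterus; bradykinin antagonism expressed as pA2, the negative log molar antagonist concentration that halves agonist potency. After the highest antagonist concentration, tissues were washed extensively and percent recovery was recorded.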

SMILES	pA2 GUINEA PIG ILEUM [1]	pA2 MONOMER ([2]; P.A. = Partial Agonist)	% REC MONOMER [2] [%]	Kb ([2]; P.A. = Partial Agonist, read-out: pA2 MONOMER (converted)) [nM]	pA2 DIMER [2]
N=C(N)NCCC[C@@H](N)C(=O)N[C@@H](CCCNC(=N)N)C(=O)N1CCC[C@H]1C(=O)N1C[C@H](O)C[C@H]1C(=O)NCC(=O)N[C@@H](Cc1ccccc1)C(=O)N[C@@H](CO)C(=O)N[C@H](Cc1ccccc1)C(=O)N[C@@H](CS)C(=O)N[C@@H](CCCNC(=N)N)C(=O)O [CP-0147] (HELM PEPTIDE1{[dR].R.P.[Hyp].G.F.S.[dF].C.R}$$$$V2.0)	Inactive	Inactive			
CC(C)C[C@H](NC(=O)[C@@H](Cc1ccccc1)NC(=O)[C@H](CO)NC(=O)[C@H](Cc1ccccc1)NC(=O)CNC(=O)[C@@H]1C[C@@H](O)CN1C(=O)[C@@H]1CCCN1C(=O)[C@H](CCCNC(=N)N)NC(=O)[C@H](N)CCCNC(=N)N)C(=O)N[C@@H](CS)C(=O)O [CP-0148] (HELM PEPTIDE1{[dR].R.P.[Hyp].G.F.S.[dF].L.C}$$$$V2.0)	Inactive	Inactive	100	200	
CC(C)C[C@H](NC(=O)[C@H](CSC1CC(=O)N(CCCCCCN2C(=O)CC(SC[C@H](NC(=O)[C@H](CO)NC(=O)[C@H](Cc3ccccc3)NC(=O)CNC(=O)[C@@H]3C[C@@H](O)CN3C(=O)[C@@H]3CCCN3C(=O)[C@H](CCCNC(=N)N)NC(=O)[C@H](N)CCCNC(=N)N)C(=O)N[C@@H](CC(C)C)C(=O)N[C@@H](CCCNC(=N)N)C(=O)O)C2=O)C1=O)NC(=O)[C@H](CO)NC(=O)[C@H](Cc1ccccc1)NC(=O)CNC(=O)[C@@H]1C[C@@H](O)CN1C(=O)[C@@H]1CCCN1C(=O)[C@H](CCCNC(=N)N)NC(=O)[C@H](N)CCCNC(=N)N)C(=O)N[C@@H](CCCNC(=N)N)C(=O)O (stereo partly drawn) [CP-0157] (HELM PEPTIDE1{[dR].R.P.[Hyp].G.F.S.C.L.R}|PEPTIDE2{[dR].R.P.[Hyp].G.F.S.C.L.R}|CHEM1{[O=C1CC([*:1])C(=O)N1CCCCCCN1C(=O)CC([*:2])C1=O]}$PEPTIDE1,CHEM1,8:R3-1:R1|PEPTIDE2,CHEM1,8:R3-1:R2$$$V2.0)	Inactive				Inactive
CC(C)C[C@H](NC(=O)[C@@H](CSC1CC(=O)N(CCCCCCN2C(=O)CC(SC[C@@H](NC(=O)[C@H](CO)NC(=O)[C@H](Cc3ccccc3)NC(=O)CNC(=O)[C@@H]3C[C@@H](O)CN3C(=O)[C@@H]3CCCN3C(=O)[C@H](CCCNC(=N)N)NC(=O)[C@H](N)CCCNC(=N)N)C(=O)N[C@@H](CC(C)C)C(=O)N[C@@H](CCCNC(=N)N)C(=O)O)C2=O)C1=O)NC(=O)[C@H](CO)NC(=O)[C@H](Cc1ccccc1)NC(=O)CNC(=O)[C@@H]1C[C@@H](O)CN1C(=O)[C@@H]1CCCN1C(=O)[C@H](CCCNC(=N)N)NC(=O)[C@H](N)CCCNC(=N)N)C(=O)N[C@@H](CCCNC(=N)N)C(=O)O (stereo partly drawn) [CP-0158] (HELM PEPTIDE1{[dR].R.P.[Hyp].G.F.S.[dC].L.R}|PEPTIDE2{[dR].R.P.[Hyp].G.F.S.[dC].L.R}|CHEM1{[O=C1CC([*:1])C(=O)N1CCCCCCN1C(=O)CC([*:2])C1=O]}$PEPTIDE1,CHEM1,8:R3-1:R1|PEPTIDE2,CHEM1,8:R3-1:R2$$$V2.0)	Inactive				Inactive
N=C(N)NCCC[C@@H](N)C(=O)N[C@@H](CCCNC(=N)N)C(=O)N1CCC[C@H]1C(=O)N1C[C@H](O)C[C@H]1C(=O)NCC(=O)N[C@@H](Cc1ccccc1)C(=O)N[C@@H](CO)C(=O)N[C@H](Cc1ccccc1)C(=O)N[C@@H](CSC1CC(=O)N(CCCCCCN2C(=O)CC(SC[C@H](NC(=O)[C@@H](Cc3ccccc3)NC(=O)[C@H](CO)NC(=O)[C@H](Cc3ccccc3)NC(=O)CNC(=O)[C@@H]3C[C@@H](O)CN3C(=O)[C@@H]3CCCN3C(=O)[C@H](CCCNC(=N)N)NC(=O)[C@H](N)CCCNC(=N)N)C(=O)N[C@@H](CCCNC(=N)N)C(=O)O)C2=O)C1=O)C(=O)N[C@@H](CCCNC(=N)N)C(=O)O (stereo partly drawn) [CP-0159] (HELM PEPTIDE1{[dR].R.P.[Hyp].G.F.S.[dF].C.R}|PEPTIDE2{[dR].R.P.[Hyp].G.F.S.[dF].C.R}|CHEM1{[O=C1CC([*:1])C(=O)N1CCCCCCN1C(=O)CC([*:2])C1=O]}$PEPTIDE1,CHEM1,9:R3-1:R1|PEPTIDE2,CHEM1,9:R3-1:R2$$$V2.0)	Inactive				Inactive
CC(C)C[C@H](NC(=O)[C@@H](Cc1ccccc1)NC(=O)[C@H](CO)NC(=O)[C@H](Cc1ccccc1)NC(=O)CNC(=O)[C@@H]1C[C@@H](O)CN1C(=O)[C@@H]1CCCN1C(=O)[C@H](CCCNC(=N)N)NC(=O)[C@H](N)CCCNC(=N)N)C(=O)N[C@@H](CSC1CC(=O)N(CCCCCCN2C(=O)CC(SC[C@H](NC(=O)[C@H](CC(C)C)NC(=O)[C@@H](Cc3ccccc3)NC(=O)[C@H](CO)NC(=O)[C@H](Cc3ccccc3)NC(=O)CNC(=O)[C@@H]3C[C@@H](O)CN3C(=O)[C@@H]3CCCN3C(=O)[C@H](CCCNC(=N)N)NC(=O)[C@H](N)CCCNC(=N)N)C(=O)O)C2=O)C1=O)C(=O)O (stereo partly drawn) [CP-0160] (HELM PEPTIDE1{[dR].R.P.[Hyp].G.F.S.[dF].L.C}|PEPTIDE2{[dR].R.P.[Hyp].G.F.S.[dF].L.C}|CHEM1{[O=C1CC([*:1])C(=O)N1CCCCCCN1C(=O)CC([*:2])C1=O]}$PEPTIDE1,CHEM1,10:R3-1:R1|PEPTIDE2,CHEM1,10:R3-1:R2$$$V2.0)	Inactive				Inactive
CC(C)C[C@H](NC(=O)[C@@H](Cc1ccccc1)NC(=O)[C@H](CO)NC(=O)[C@H](Cc1ccccc1)NC(=O)[C@@H](CS)NC(=O)[C@@H]1C[C@@H](O)CN1C(=O)[C@@H]1CCCN1C(=O)[C@H](CCCNC(=N)N)NC(=O)[C@H](N)CCCNC(=N)N)C(=O)N[C@@H](CCCNC(=N)N)C(=O)O [CP-0173] (HELM PEPTIDE1{[dR].R.P.[Hyp].[dC].F.S.[dF].L.R}$$$$V2.0)	Inactive	Inactive			
CC(C)C[C@H](NC(=O)[C@@H](Cc1ccccc1)NC(=O)[C@H](CO)NC(=O)[C@H](Cc1ccccc1)NC(=O)[C@@H](CSC1CC(=O)N(CCCCCCN2C(=O)CC(SC[C@@H](NC(=O)[C@@H]3C[C@@H](O)CN3C(=O)[C@@H]3CCCN3C(=O)[C@H](CCCNC(=N)N)NC(=O)[C@H](N)CCCNC(=N)N)C(=O)N[C@@H](Cc3ccccc3)C(=O)N[C@@H](CO)C(=O)N[C@H](Cc3ccccc3)C(=O)N[C@@H](CC(C)C)C(=O)N[C@@H](CCCNC(=N)N)C(=O)O)C2=O)C1=O)NC(=O)[C@@H]1C[C@@H](O)CN1C(=O)[C@@H]1CCCN1C(=O)[C@H](CCCNC(=N)N)NC(=O)[C@H](N)CCCNC(=N)N)C(=O)N[C@@H](CCCNC(=N)N)C(=O)O (stereo partly drawn) [CP-0203] (HELM PEPTIDE1{[dR].R.P.[Hyp].[dC].F.S.[dF].L.R}|PEPTIDE2{[dR].R.P.[Hyp].[dC].F.S.[dF].L.R}|CHEM1{[O=C1CC([*:1])C(=O)N1CCCCCCN1C(=O)CC([*:2])C1=O]}$PEPTIDE1,CHEM1,5:R3-1:R1|PEPTIDE2,CHEM1,5:R3-1:R2$$$V2.0)	Inactive				Inactive
